According to patent US7888319B2, “Compositions and methods for promoting wound healing and tissue regeneration” (MUSC Foundation for Research Development, priority 2004, dated 2011):
Ends that are not written are not given here.

Columns and labels:
[1] = test system: 5 mm diameter excisional skin wounds; experiment: Small (5 mm) excisional skin wounds in adult mice, ACT 1 to ACT 5; type: in vivo, mouse
Method: Anesthetized adult mice had 2 small (5 mm diameter) excisional skin wounds made by fine surgical scissors on the neck and (upper) back. The boundaries of the injuries were demarcated by a 5 mm wide circular template cut in a plastic sheet. 50-60 μl of a solution of 20% pluronic gel containing either no (control) or one of the ACT peptides (ACT 2-SEQ ID NO: 1, ACT 1-SEQ ID NO:2, ACT 3-SEQ ID NO:3, ACT 4-SEQ ID NO:4, ACT 5-SEQ ID NO:5) dissolved at concentrations of 100 μM were then applied to the excisional injuries. Control or ACT peptide-containing gel was applied subsequently 24 hours after the initial application. No further applications of control and ACT peptide-containing gel were made after the second application. […] Note that the same wound on the same animal is shown at the different time points during the healing time course. Anesthetized adult mice had 2 small (5 mm diameter) excisional skin wounds made by fine surgical scissors on the neck and (upper) back. The boundaries of the injuries were demarcated by a 5 mm wide circular template cut in a plastic sheet. 50-60 μl of a solution of 30% pluronic gel containing either no (control) or one of the ACT peptides (ACT 2—SEQ ID NO:1, ACT 1—SEQ ID NO:2, ACT 3—SEQ ID NO:3, ACT 4—SEQ ID NO:4, ACT 5—SEQ ID NO:5) dissolved at concentrations of 100 μM were then applied to the excisional injuries. Control or ACT peptide-containing gels were applied subsequently 24 hours after the initial application. No further applications of control and ACT peptide-containing gel were made after the second application. […] Note that the same wound on the same animal is shown at the different time points during the healing time course. The area of open wound was measured during the time course using NIH image according to standard protocols on multiple (˜5 mice per control or treatment condition) adult mice. These individual area measurements were then normalized to (i.e., divided by) the average area measured for the control injuries for a given time point, multiplied by 100 to give a % of unclosed wound relative to the control and then plotted against time. A Mann-Whitney U-test was used to statistically assess the effects of ACT peptides over the time course. […] These treatments provided results with significant p values.

[2] = test system: 8 mm wide circular excisional skin injuries; experiment: Large (8 mm) excisional skin injury in adult mice; type: in vivo, mouse
Method: Anesthetized adult mice had 8 mm wide circular excisional skin injuries made by fine surgical scissors down to the underlying muscle in the dorsal mid line between the shoulder blades (i.e., as shown in (a) an (b). The boundary of the injury was demarcated by an 8 mm wide circular template cut in a plastic sheet. 100 μl of a solution of 30% pluronic gel containing either no (control) or dissolved ACT 1 peptide (SEQ ID NO:2) at a concentration of 100 μM was then applied to the excisional injuries. Control or ACT peptide containing gel was applied subsequently 24 hours after the initial application. No further applications of control and ACT peptide containing gel were made after the second application. […] Note that images of the same injury on the same animal are shown at the different time points during the healing time course. […] Skin biopsies of the entire wound site were taken from some of the mice 24 hours following the excisional injury in the experiment described in FIG. 6. Figures (a) and (b) show low magnification survey views of cross-sections from near the center of the wound of control and ACT peptide treated injuries respectively. The wound edge (marked by the small arrows), bounded by skin of normal histological appearance, can be seen in both cases. A black rectangle is placed over the images in (a) and (b) at the left hand wound edge. The histological structures within these two rectangles are shown at higher magnification in (c) and (d) for control and ACT peptide treated tissues, respectively. Of most interest is a “collar-like” tissue of aligned fibrous material (arrowed) projecting from basal parts of the injury to or toward the wound edge and exterior surface of injury. The aligned fibrous substrate has the appearance of being much more organized in the control injury (d) than in the ACT peptide treated injury (c). […] This is confirmed in (e) and (f) where regions of histological section within the black rectangles shown in (c) and (d) are respectively shown at higher magnification. The inflammatory cells studding the aligned fibrous substrate include mast cells, neutrophils and macrophages. These inflammatory cells occur at much higher density in the control injury than in the ACT peptide treated injury. […] At the end of the 14 day period in the experiment described in FIG. 6, skin biopsies of the entire excisional injury were taken and histological sections from these skin samples were H&E histochemically stained. Figures (a) and (b) show low magnification survey views of cross-sections from near the center of the injury of ACT peptide and control respectively. The wound edge (marked by the small arrows), bounded by skin of normal histological appearance, can be seen in both cases. A black rectangle is placed over the images in (a) and (b) near the center of each injury. The histological structures within these two rectangles are shown at higher magnification in (c) and (d) for the ACT peptide and control tissues respectively. It is evident that tissue within the ACT peptide treated injury locus has considerably more complexity. […] By comparison, re-epithelization of the injury surface is incomplete and there is no sign of regenerating hair follicles in the epithelium of the control injury (d). […] As with, the hair follicles this tissue complexity was regenerated by differentiation of stem cells. […]

RPRPDDLEI (not fully specified (N-terminus)) [ACT 1, carboxy-terminal 9 amino acids of human Cx43; amino terminus biotinylated in tests]
closure, inflammation, healing and scarring of injuries ([1]; 100 μM in pluronic gel, 50-60 μl, applied at 0 and 24 hours, 240 hour time course (10 days), vs gel without peptide): closed faster, were significantly less inflamed in appearance, healed faster and scarred less | size of improvement in wound closure over the control, compared among peptides ([1]; 100 μM, over the time course): most pronounced improvements over the control | wound closure rates (area of open wound as % of unclosed wound relative to the control) ([1]; 100 μM, ~5 mice per condition, Mann-Whitney U-test over the time course): significantly improved wound closure rates | closure, inflammation, healing and scarring of injury ([2]; 100 μM in 30% pluronic gel, 100 μl, applied at 0 and 24 hours, 14 day time course, vs gel without peptide): closed faster, was less inflamed in appearance, healed faster and scarred less | re-epithelization of the injured surface ([2]; 100 μM, 14 days, H&E histology): re-epithelization of the injured surface is complete | regenerating hair follicles in the new epithelium ([2]; 100 μM, 14 days, H&E histology): regenerating hair follicles can already be seen | restoration of tissue structural complexity beneath the reformed epithelium ([2]; 100 μM, 14 days, H&E histology): considerable restoration of normal structural complexity | density of inflammatory cells studding the fibrous substrate at the wound edge ([2]; 100 μM, skin biopsy 24 hours after injury, H&E histology): considerably lower density of inflammatory cells
